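96-well plates; 48 h exposure; 5 concentrations. Endpoints by linear interpolation between flanking doses. Not reached: highest tested concentration assigned. GI50 marks 50% less growth.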 The source made the active and inactive calls. Cut-off read from the data, not from the text of the source: active = GI50 up to about 1.1 µM and inactive = higher.
Columns and labels:
Experiment in all cases: inhibition of tumour cell growth, NCI panel, 48 h
HCT-15 = tested on: HCT-15
HOP-92 = tested on: HOP-92
BT-549 = tested on: BT-549
NCI-H522 = tested on: NCI-H522
KM12 = tested on: KM12
SW-620 = tested on: SW-620
SK-MEL-2 = tested on: SK-MEL-2
UACC-62 = tested on: UACC-62
IGROV-1 = tested on: IGROV-1
COLO 205 = tested on: COLO 205
SK-OV-3 = tested on: SK-OV-3
ACHN = tested on: ACHN
MCF7 = tested on: MCF7
PC-3 = tested on: PC-3
OVCAR-3 = tested on: OVCAR-3
MDA-MB-231 = tested on: MDA-MB-231
MOLT-4 = tested on: MOLT-4
UACC-257 = tested on: UACC-257
TK-10 = tested on: TK-10
Hs-578T = tested on: Hs-578T
OVCAR-4 = tested on: OVCAR-4
SK-MEL-28 = tested on: SK-MEL-28
HCT-116 = tested on: HCT-116
EKVX = tested on: EKVX
HCC 2998 = tested on: HCC 2998
SK-MEL-5 = tested on: SK-MEL-5
OVCAR-5 = tested on: OVCAR-5
A549 = tested on: A549
CAKI-1 = tested on: CAKI-1
CCRF-CEM = tested on: CCRF-CEM
NCI-H226 = tested on: NCI-H226
SNB-75 = tested on: SNB-75
NCI-H23 = tested on: NCI-H23
DU-145 = tested on: DU-145
U-251 = tested on: U-251
SR = tested on: SR
SN12C = tested on: SN12C
HOP-62 = tested on: HOP-62
K562 = tested on: K562
NCI/ADR-RES = tested on: NCI/ADR-RES
SNB-19 = tested on: SNB-19
MDA-N = tested on: MDA-N
HL-60 = tested on: HL-60
OVCAR-8 = tested on: OVCAR-8
RXF 393 = tested on: RXF 393
HT-29 = tested on: HT-29
SF-295 = tested on: SF-295
MDA-MB-435 = tested on: MDA-MB-435
M14 = tested on: M14
A498 = tested on: A498
SF-539 = tested on: SF-539
786-0 = tested on: 786-0
T47D = tested on: T47D
RPMI-8226 = tested on: RPMI-8226
Malme-3M = tested on: Malme-3M
UO-31 = tested on: UO-31
LOX IMVI = tested on: LOX IMVI
SF-268 = tested on: SF-268
NCI-H460 = tested on: NCI-H460

With `C=C1CC[C@@H]2[C@](C)(COC(=O)CCC(=O)O)CCC[C@@]2(C)[C@@H]1CCC1=CC(=O)OC1` the GI50 (HCT-15) was over 100 µM, the GI50 (HOP-92) was > 100 µM (inactive) and the GI50 (BT-549) was > 100 µM (inactive). For the same molecule, the GI50 (NCI-H522) was > 100 µM (inactive), the GI50 (KM12) was > 100 µM (inactive) and the GI50 (SW-620) was > 100 µM (inactive). For the same molecule, the GI50 (SK-MEL-2) was > 100 µM (inactive), the GI50 (UACC-62) was > 100 µM (inactive) and the GI50 (IGROV-1) was > 100 µM (inactive). The GI50 (COLO 205) was > 100 µM (inactive), the GI50 (SK-OV-3) was > 100 µM (inactive) and the GI50 (ACHN) was > 100 µM (inactive). The GI50 (MCF7) was > 100 µM (inactive), the GI50 (PC-3) was > 100 µM (inactive) and the GI50 (OVCAR-3) was > 100 µM (inactive). For the same molecule, the GI50 (MDA-MB-231) was > 100 µM (inactive), the GI50 (MOLT-4) was > 100 µM (inactive) and the GI50 (UACC-257) was > 100 µM (inactive). For the same molecule, the GI50 (TK-10) was > 100 µM (inactive), the GI50 (Hs-578T) was > 100 µM (inactive) and the GI50 (OVCAR-4) was > 100 µM (inactive). For the same molecule, the GI50 (SK-MEL-28) was > 100 µM (inactive), the GI50 (HCT-116) was > 100 µM (inactive) and the GI50 (EKVX) was > 100 µM (inactive). The GI50 (HCC 2998) was > 100 µM (inactive), the GI50 (SK-MEL-5) was 42.9 µM (inactive) and the GI50 (OVCAR-5) was > 100 µM (inactive). For the same molecule, the GI50 (A549) was > 100 µM (inactive), the GI50 (CAKI-1) was > 100 µM (inactive) and the GI50 (CCRF-CEM) was > 100 µM (inactive). The GI50 (NCI-H226) was > 100 µM (inactive), the GI50 (SNB-75) was > 100 µM (inactive) and the GI50 (NCI-H23) was > 100 µM (inactive). For the same molecule, the GI50 (DU-145) was 5.97 µM (inactive), the GI50 (U-251) was > 100 µM (inactive) and the GI50 (SR) was > 10 µM (inactive). The GI50 (SN12C) was > 100 µM (inactive), the GI50 (HOP-62) was > 100 µM (inactive) and the GI50 (K562) was > 100 µM (inactive). The GI50 (NCI/ADR-RES) was > 100 µM (inactive), the GI50 (SNB-19) was > 100 µM (inactive) and the GI50 (MDA-N) was > 100 µM (inactive). For the same molecule, the GI50 (HL-60) was > 100 µM (inactive), the GI50 (OVCAR-8) was > 100 µM (inactive) and the GI50 (RXF 393) was > 100 µM (inactive). The GI50 (HT-29) was > 100 µM (inactive), the GI50 (SF-295) was > 100 µM (inactive) and the GI50 (MDA-MB-435) was > 100 µM (inactive). The GI50 (M14) was > 100 µM (inactive), the GI50 (A498) was > 100 µM (inactive) and the GI50 (SF-539) was > 100 µM (inactive). The GI50 (786-0) was > 100 µM (inactive), the GI50 (T47D) was > 100 µM (inactive) and the GI50 (RPMI-8226) was > 100 µM (inactive). The GI50 (Malme-3M) was > 100 µM (inactive), the GI50 (UO-31) was > 100 µM (inactive) and the GI50 (LOX IMVI) was > 100 µM (inactive). The GI50 (SF-268) was > 100 µM (inactive).

With `FC(F)(F)c1ccc2c(c1)nc(Cc1ccc(Cl)cc1)n2CC1CCCN2CCCCC12` (stereo not drawn) the GI50 (HCT-15) was 8.69 µM, the GI50 (HOP-92) was 7.67 µM (inactive) and the GI50 (BT-549) was 11.5 µM (inactive). The GI50 (NCI-H522) was 4.37 µM (inactive), the GI50 (KM12) was 5.02 µM (inactive) and the GI50 (SW-620) was 13.2 µM (inactive). The GI50 (SK-MEL-2) was 13.6 µM (inactive), the GI50 (UACC-62) was 2.89 µM (inactive) and the GI50 (IGROV-1) was 10.4 µM (inactive). For the same molecule, the GI50 (COLO 205) was 3.96 µM (inactive), the GI50 (SK-OV-3) was 11.9 µM (inactive) and the GI50 (ACHN) was 11.5 µM (inactive). For the same molecule, the GI50 (MCF7) was 10.2 µM (inactive), the GI50 (PC-3) was 8.65 µM (inactive) and the GI50 (OVCAR-3) was 3.8 µM (inactive). For the same molecule, the GI50 (MDA-MB-231) was 3.27 µM (inactive), the GI50 (MOLT-4) was 3.18 µM (inactive) and the GI50 (UACC-257) was 2.92 µM (inactive). For the same molecule, the GI50 (TK-10) was 12.2 µM (inactive), the GI50 (Hs-578T) was 1.19 µM (inactive) and the GI50 (OVCAR-4) was 12.2 µM (inactive). The GI50 (SK-MEL-28) was 2.52 µM (inactive), the GI50 (HCT-116) was 6.35 µM (inactive) and the GI50 (EKVX) was 11.1 µM (inactive). The GI50 (HCC 2998) was 2.11 µM (inactive), the GI50 (SK-MEL-5) was 3.89 µM (inactive) and the GI50 (OVCAR-5) was 12.5 µM (inactive). For the same molecule, the GI50 (A549) was 12.6 µM (inactive), the GI50 (CAKI-1) was 14.8 µM (inactive) and the GI50 (NCI-H226) was 11.9 µM (inactive). The GI50 (SNB-75) was 1.59 µM (inactive), the GI50 (DU-145) was 10 µM (inactive) and the GI50 (U-251) was 8.24 µM (inactive). For the same molecule, the GI50 (SR) was 2.29 µM (inactive), the GI50 (SN12C) was 9.79 µM (inactive) and the GI50 (HOP-62) was 14.1 µM (inactive). The GI50 (K562) was 4.18 µM (inactive), the GI50 (NCI/ADR-RES) was 8.18 µM (inactive) and the GI50 (SNB-19) was 14 µM (inactive). The GI50 (MDA-N) was 1.52 µM (inactive), the GI50 (HL-60) was 2.23 µM (inactive) and the GI50 (OVCAR-8) was 11.3 µM (inactive). For the same molecule, the GI50 (RXF 393) was 10.3 µM (inactive), the GI50 (HT-29) was 2.81 µM (inactive) and the GI50 (SF-295) was 10.5 µM (inactive). For the same molecule, the GI50 (NCI-H460) was 7.66 µM (inactive), the GI50 (MDA-MB-435) was 6.27 µM (inactive) and the GI50 (M14) was 2.07 µM (inactive). The GI50 (A498) was 14.2 µM (inactive), the GI50 (786-0) was 7.67 µM (inactive) and the GI50 (T47D) was 6.61 µM (inactive). For the same molecule, the GI50 (Malme-3M) was 1.73 µM (inactive), the GI50 (UO-31) was 0.0194 µM (active) and the GI50 (LOX IMVI) was 2.15 µM (inactive). The GI50 (SF-268) was 5.07 µM (inactive).

Source: ChEMBL document CHEMBL1201862, “PubChem BioAssay data set” (2004)
